Source: patent US4652586A, “Selective beta-2 adrenergic antagonists for the treatment of glaucoma” (priority 1980, dated 1987)
“Also recorded” adds a separate entry of the source. Counter-ions that a name gives are not always drawn. Like-named read-outs stand apart in the source and are kept apart here.

Experiments:
[1] = molecular target: T1, rabbit ciliary process adenylate cyclase (beta2-adrenergic receptors) (Oryctolagus cuniculus, UniProt G1TAV7); test: rabbit ciliary process isoproterenol-stimulated adenylate cyclase; assay type: biochemical; details: Table III; rabbit ciliary process, isoproterenol-stimulated
T1 construct: Homogenates or washed particulate preparations (10 mg/ml) in 6 mM Tris-maleate, pH 7.4, are prepared from the various tissues to be studied; from tissue; host or cells: rabbit ciliary process

heart adenylate cyclase = details: Table I, data from Minneman et al, cited from earlier work; for Ki: antagonists, read-out: Adenylate Cyclase Ki, Heart (G)
[2] = molecular target: rabbit heart isoproterenol-stimulated adenylate cyclase; test: rabbit heart isoproterenol-stimulated adenylate cyclase; assay type: biochemical
[3] = tested on: rabbit ciliary process adenylate cyclase (beta2-adrenergic receptors); test: rabbit ciliary process isoproterenol-stimulated adenylate cyclase; assay type: biochemical; details: for Ki heart / Ki Ciliary Process = beta2/beta1 potency ratio: Table III, rabbit heart vs rabbit ciliary process, ±20%
[4] = molecular target: beta1-adrenergic receptor present in mammalian heart; details: Table I; data from Minneman et al; read-out: Kd for IHYP Binding, Heart (E); cited from earlier work
adult female cats = details: Colasanti and Trotter 1979; cited from earlier work
rabbit eyes = test: intraocular pressure in normal rabbit eyes after topical application; details: for IOP in the contralateral eye: 0.5% topical to ipsilateral eye, presumably systemic absorption; for IOP in ipsilateral eyes compared to predrug readings: two 50 microliter doses, normal rabbit, FIG. 2
[5] = tested on: ciliary body adenylate cyclase; test: ciliary body adenylate cyclase stimulation; assay type: biochemical
Excerpt: (§1) The discovery that the ciliary process of the mammalian eye contains β2 -adrenergic receptors is based on the technique of measuring adenylate cyclase, an enzyme which synthesizes cyclic AMP from ATP. It has been established that receptor binding of beta adrenergic agonists is associated with a concomitant activation of adenylate cyclase. (Robison, G. A., et al, Cyclic AMP, Academic Press, New York, 1971, and Wolfe, B. B., et al, Annual Reviews of Pharmacology and Toxicology, 17:575-604 (1977)). […] Beta adrenergic sensitive adenylate cyclase activity was thus identified and characterized in the ocular tissues of several mammalian species such as rabbits, cats, dogs, monkeys and humans. After isolation of the ciliary process, adenylate cyclase activity was measured, and its activation by agonists or inhibition by antagonists was measured. […].
(§2) For ciliary body, maximal stimulation was 15% of the stimulation seen in the ciliary process, and for iris, maximal stimulation was 22% for that seen in the ciliary process. […];

iris adenylate cyclase = iris adenylate cyclase stimulation; assay type: biochemical
Excerpt: as §1, §2

[6] = Table III, rabbit heart, isoproterenol-stimulated, read-out: Adenylate Cyclase Ki, Heart

T1 sequence (G1TAV7 1-437): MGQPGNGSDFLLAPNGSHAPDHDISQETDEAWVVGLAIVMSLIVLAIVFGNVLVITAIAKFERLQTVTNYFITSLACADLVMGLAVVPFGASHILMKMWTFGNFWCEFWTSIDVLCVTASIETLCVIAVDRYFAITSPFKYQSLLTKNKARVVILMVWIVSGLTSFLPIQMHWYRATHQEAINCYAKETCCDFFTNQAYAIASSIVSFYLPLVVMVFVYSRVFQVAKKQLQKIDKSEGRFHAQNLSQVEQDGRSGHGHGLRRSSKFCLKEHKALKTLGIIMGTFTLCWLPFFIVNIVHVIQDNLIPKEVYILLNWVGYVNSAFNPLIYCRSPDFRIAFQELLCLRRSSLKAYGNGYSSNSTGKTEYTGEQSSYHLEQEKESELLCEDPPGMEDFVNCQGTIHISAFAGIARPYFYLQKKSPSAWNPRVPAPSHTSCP

CC(C)NCC(O)COc1ccc(CC(N)=O)cc1 (stereo not drawn) [Atenolol, atenolol]
Ki [1]: 11 µM

COc1ccc(OC)c(C(O)C(C)NC(C)(C)C)c1 (stereo not drawn) [Butoxamine]
Ki (heart adenylate cyclase): 9.5 µM | Ki [2, 6]: 9.5 µM | Ki [1]: 1.4 µM | β2/β1 potency ratio (Ki heart/Ki ciliary process) ([3]; Table II, from Table I, accurate to ±20%): 1.50 | Ki heart / Ki Ciliary Process = beta2/beta1 potency ratio [3]: 6.8

CNC[C@H](O)c1ccc(O)c(O)c1 [Epinephrine]
Adenylate Cyclase Ka, Heart (G) (heart adenylate cyclase; agonists, NE = no effect as agonist): 1.5 µM

Cc1ccc(C(O)C(C)NC(C)C)cc1 (stereo not drawn) [H35/25, (1(4'-methyl phenyl)-2-isopropylaminopropanol)]
Kd [4]: 1.97 µM | Ki (heart adenylate cyclase): 7 µM | Ki [2, 6]: 7 µM | Ki [1]: 0.79 µM | Ki heart / Ki Ciliary Process = beta2/beta1 potency ratio [3]: 8.8 | β2/β1 potency ratio (Ki heart/Ki ciliary process) ([3]; rabbit, heart vs ciliary process): 3.1 | maximal reduction of intraocular tension (adult female cats): about the same maximal reduction as timolol

CC(C)(C)NCC(O)CON=C1c2ccccc2-c2ccccc21 (stereo not drawn) [IPS 339, (t-butyl-amino 3-ol-2-propyl)oximino-9 fluorene, hydrochloride]
Ki ([2]; Table I, footnote ++ present invention, read-out: Adenylate Cyclase Ki, Heart (G)): 0.84 µM | Ki [2, 6]: 0.84 µM | IOP in the contralateral eye (rabbit eyes): significant decrease in IOP in the contralateral eye | IOP in ipsilateral eyes compared to predrug readings (rabbit eyes; 0.5% topical): significant decrease in IOP in ipsilateral eyes at 2 and 3 hours after application | extent of IOP decrease, IPS 339 compared with timolol (rabbit eyes; 0.5% topical, at 3 hours): significantly more than that caused by timolol | magnitude of contralateral IOP effect (rabbit eyes; 0.5% topical, compared with timolol): somewhat less for IPS 339 than for timolol

CC(C)NCC(O)c1ccc(O)c(O)c1 (stereo not drawn) [Isoproterenol, isoproterenol]
maximal stimulation, ciliary body [5]: 15 % of the stimulation seen in the ciliary process | maximal stimulation, iris (iris adenylate cyclase): 22 % for that seen in the ciliary process

CC(=O)Nc1ccc(OCC(O)CNC(C)C)cc1 (stereo not drawn) [Practolol, practolol]
Ki (heart adenylate cyclase): 6.8 µM | Ki [2, 6]: 6.8 µM | Ki [1]: 21 µM

CC(C)(C)NC[C@H](O)COc1nsnc1N1CCOCC1 [Timolol, timolol]
Ki (heart adenylate cyclase): 0.016 µM | Ki [2, 6]: 0.016 µM | Ki [1]: 0.0045 µM | IOP in the contralateral eye (rabbit eyes): significant decrease in IOP in the contralateral eye | IOP in ipsilateral eyes compared to predrug readings (rabbit eyes; 0.5% topical): significant decrease in IOP in ipsilateral eyes at 2 and 3 hours after application; also recorded: significant decrease at 1 hour
